This passage reports ΔTm results from ChEMBL document CHEMBL1145498, “A systematic interaction map of validated kinase inhibitors with Ser/Thr kinases” (Proc Natl Acad Sci U S A, 2007).

Each structure is given as a SMILES string.

Assay [1] has as its target T1, Mitogen-activated protein kinase kinase kinase 5 (Homo sapiens) (UniProt Q99683).
T1 sequence (whole entry): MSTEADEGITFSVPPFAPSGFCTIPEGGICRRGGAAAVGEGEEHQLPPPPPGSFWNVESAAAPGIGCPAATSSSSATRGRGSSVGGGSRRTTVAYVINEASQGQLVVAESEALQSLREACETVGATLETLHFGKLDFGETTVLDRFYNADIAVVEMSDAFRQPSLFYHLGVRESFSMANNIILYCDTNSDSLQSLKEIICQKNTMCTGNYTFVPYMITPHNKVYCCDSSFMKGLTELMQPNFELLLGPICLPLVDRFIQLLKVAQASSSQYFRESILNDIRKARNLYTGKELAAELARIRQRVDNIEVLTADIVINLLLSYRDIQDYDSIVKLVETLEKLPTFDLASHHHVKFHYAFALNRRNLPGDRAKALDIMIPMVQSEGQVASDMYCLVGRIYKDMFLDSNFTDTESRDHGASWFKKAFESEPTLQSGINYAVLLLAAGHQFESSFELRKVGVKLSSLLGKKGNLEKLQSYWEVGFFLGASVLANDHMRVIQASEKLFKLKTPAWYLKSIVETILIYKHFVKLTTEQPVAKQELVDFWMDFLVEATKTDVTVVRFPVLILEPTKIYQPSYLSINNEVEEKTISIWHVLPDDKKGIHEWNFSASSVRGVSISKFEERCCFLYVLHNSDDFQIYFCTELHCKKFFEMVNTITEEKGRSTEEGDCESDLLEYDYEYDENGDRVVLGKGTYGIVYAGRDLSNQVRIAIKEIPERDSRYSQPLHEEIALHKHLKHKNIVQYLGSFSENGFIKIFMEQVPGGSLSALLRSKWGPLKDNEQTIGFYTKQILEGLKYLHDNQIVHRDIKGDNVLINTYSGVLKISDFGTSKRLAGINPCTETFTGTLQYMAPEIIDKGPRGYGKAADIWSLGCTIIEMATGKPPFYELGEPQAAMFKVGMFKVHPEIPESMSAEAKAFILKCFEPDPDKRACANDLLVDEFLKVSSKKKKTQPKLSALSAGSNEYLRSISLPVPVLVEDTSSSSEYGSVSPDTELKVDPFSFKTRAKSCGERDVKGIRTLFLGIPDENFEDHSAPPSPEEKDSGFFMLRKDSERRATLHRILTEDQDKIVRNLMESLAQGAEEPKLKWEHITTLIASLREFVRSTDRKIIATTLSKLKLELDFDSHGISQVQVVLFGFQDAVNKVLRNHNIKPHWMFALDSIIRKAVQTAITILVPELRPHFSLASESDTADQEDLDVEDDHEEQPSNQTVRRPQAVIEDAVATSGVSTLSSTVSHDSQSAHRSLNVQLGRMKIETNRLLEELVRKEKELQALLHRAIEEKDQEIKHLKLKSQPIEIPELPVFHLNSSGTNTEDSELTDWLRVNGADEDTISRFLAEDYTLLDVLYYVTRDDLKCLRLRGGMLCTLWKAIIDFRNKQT

The target of assay [2] is Calcium/calmodulin-dependent protein kinase type II subunit alpha (Homo sapiens) (UniProt Q9UQM7).
Assay [3] deals with Mitogen-activated protein kinase 3 (Homo sapiens, UniProt P27361).
Assay [4] addresses Serine/threonine-protein kinase 26 (Homo sapiens) (UniProt Q9P289).
Assay [5] concerns the target Cyclin-dependent kinase 6 (Homo sapiens) (UniProt Q00534).
In assay [6] the target is Calcium/calmodulin-dependent protein kinase type 1G (Homo sapiens) (UniProt Q96NX5).
Assay [7] deals with Glycogen synthase kinase-3 beta (Homo sapiens, UniProt P49841).
The target in assay [8] is Serine/threonine-protein kinase 26 (Homo sapiens) (UniProt Q9P289). The source holds these as a separate data set.
The target of assay [9] is Serine/threonine-protein kinase 10 (Homo sapiens) (UniProt O94804).
The target of assay [10] is TRAF2 and NCK-interacting protein kinase (Homo sapiens) (UniProt Q9UKE5).
Assay [11] addresses T2, Serine/threonine-protein kinase 17A (Homo sapiens) (UniProt Q9UEE5).
T2 sequence (whole entry): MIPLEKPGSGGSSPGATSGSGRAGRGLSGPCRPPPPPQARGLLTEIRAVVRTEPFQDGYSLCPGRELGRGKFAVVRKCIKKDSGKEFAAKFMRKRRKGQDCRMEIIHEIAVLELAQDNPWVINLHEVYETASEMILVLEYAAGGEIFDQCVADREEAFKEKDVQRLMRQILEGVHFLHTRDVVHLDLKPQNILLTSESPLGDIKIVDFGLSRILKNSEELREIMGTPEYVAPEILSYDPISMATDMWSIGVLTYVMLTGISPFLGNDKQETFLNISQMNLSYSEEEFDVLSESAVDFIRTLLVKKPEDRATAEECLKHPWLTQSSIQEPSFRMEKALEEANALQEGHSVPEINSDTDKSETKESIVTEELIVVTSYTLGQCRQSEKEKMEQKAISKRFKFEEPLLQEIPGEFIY

In assay [12] the target is Serine/threonine-protein kinase PAK 5 (Homo sapiens) (UniProt Q9P286).
Assay [13] concerns the target Calcium/calmodulin-dependent protein kinase type II subunit delta (Homo sapiens) (UniProt Q13557).
In assay [14] the target is Tyrosine-protein kinase JAK1 (Homo sapiens) (UniProt P23458).
The target in assay [15] is Serine/threonine-protein kinase VRK2 (Homo sapiens) (UniProt Q86Y07).
Assay [16] deals with Serine/threonine-protein kinase PLK1 (Homo sapiens) (UniProt P53350).
Assay [17] concerns the target Serine/threonine-protein kinase Chk2 (Homo sapiens, UniProt O96017).
Assay [18] has as its target Calcium/calmodulin-dependent protein kinase type II subunit beta (Homo sapiens) (UniProt Q13554).
Assay [19] concerns the target Serine/threonine-protein kinase pim-2 (Homo sapiens, UniProt Q9P1W9).
The target in assay [20] is Serine/threonine-protein kinase 16 (Homo sapiens) (UniProt O75716).
Assay [21] deals with Serine/threonine-protein kinase Nek6 (Homo sapiens) (UniProt Q9HC98).
Chain of Serine/threonine-protein kinase Nek6 (Homo sapiens) (Q9HC98 whole entry): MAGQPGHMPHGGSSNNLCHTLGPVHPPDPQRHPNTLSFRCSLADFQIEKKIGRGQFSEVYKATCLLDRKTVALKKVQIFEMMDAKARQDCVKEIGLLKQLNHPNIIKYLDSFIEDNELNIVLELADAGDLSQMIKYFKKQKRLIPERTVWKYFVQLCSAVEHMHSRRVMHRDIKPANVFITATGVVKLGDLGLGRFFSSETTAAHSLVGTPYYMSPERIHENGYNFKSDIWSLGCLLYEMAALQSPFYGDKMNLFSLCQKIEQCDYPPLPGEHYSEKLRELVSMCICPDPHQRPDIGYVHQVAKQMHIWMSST

Chain of Tyrosine-protein kinase JAK1 (Homo sapiens) (P23458 whole entry): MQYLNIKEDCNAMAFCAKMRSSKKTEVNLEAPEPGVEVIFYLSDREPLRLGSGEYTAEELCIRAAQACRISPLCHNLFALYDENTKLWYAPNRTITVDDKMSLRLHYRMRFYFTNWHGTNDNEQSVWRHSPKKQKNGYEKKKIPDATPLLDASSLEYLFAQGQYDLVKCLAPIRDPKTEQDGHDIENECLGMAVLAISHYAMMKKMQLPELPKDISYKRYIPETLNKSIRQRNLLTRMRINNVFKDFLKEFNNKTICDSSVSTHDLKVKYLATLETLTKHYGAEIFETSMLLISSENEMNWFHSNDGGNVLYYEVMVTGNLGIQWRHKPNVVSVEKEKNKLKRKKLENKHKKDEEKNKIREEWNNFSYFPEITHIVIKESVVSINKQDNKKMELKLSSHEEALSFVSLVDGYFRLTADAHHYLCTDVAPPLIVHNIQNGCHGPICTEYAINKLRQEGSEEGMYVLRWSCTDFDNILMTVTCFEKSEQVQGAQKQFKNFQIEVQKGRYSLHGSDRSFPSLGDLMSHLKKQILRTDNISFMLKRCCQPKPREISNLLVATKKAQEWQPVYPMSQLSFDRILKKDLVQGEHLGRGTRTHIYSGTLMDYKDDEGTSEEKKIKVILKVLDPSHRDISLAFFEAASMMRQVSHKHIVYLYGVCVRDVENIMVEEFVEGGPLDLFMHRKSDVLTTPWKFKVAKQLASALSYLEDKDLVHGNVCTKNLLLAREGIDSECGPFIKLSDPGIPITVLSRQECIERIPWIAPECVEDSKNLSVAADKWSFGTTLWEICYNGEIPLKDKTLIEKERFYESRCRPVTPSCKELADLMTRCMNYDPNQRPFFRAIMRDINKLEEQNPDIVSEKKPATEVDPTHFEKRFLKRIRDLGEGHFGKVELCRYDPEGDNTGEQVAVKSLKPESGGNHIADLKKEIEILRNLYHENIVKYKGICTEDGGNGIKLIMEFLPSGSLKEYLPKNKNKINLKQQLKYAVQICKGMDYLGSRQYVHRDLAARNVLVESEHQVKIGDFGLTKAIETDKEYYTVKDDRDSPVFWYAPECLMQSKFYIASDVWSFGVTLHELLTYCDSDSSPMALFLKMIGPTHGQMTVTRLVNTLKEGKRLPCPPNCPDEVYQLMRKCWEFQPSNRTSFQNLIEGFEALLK
Chain of Cyclin-dependent kinase 6 (Homo sapiens) (Q00534 whole entry): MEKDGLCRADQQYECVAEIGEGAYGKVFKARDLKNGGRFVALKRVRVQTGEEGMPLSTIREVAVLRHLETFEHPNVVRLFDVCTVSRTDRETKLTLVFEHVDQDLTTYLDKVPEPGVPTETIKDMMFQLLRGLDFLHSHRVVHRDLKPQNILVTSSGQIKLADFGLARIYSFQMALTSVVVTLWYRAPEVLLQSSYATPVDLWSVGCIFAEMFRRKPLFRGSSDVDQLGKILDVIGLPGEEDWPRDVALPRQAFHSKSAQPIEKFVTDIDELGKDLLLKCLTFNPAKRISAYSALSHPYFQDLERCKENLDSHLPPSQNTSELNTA
Chain of Serine/threonine-protein kinase 16 (Homo sapiens) (O75716 whole entry): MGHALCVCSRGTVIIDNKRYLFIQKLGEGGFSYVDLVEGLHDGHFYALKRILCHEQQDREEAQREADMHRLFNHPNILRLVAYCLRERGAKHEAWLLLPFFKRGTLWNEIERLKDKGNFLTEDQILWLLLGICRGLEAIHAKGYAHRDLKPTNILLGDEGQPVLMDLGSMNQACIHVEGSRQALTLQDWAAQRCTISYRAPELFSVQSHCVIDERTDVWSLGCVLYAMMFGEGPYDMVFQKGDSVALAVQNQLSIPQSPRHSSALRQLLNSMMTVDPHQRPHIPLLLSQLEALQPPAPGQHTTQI
Chain of Serine/threonine-protein kinase 26 (Homo sapiens) (Q9P289 2-416 limits assumed): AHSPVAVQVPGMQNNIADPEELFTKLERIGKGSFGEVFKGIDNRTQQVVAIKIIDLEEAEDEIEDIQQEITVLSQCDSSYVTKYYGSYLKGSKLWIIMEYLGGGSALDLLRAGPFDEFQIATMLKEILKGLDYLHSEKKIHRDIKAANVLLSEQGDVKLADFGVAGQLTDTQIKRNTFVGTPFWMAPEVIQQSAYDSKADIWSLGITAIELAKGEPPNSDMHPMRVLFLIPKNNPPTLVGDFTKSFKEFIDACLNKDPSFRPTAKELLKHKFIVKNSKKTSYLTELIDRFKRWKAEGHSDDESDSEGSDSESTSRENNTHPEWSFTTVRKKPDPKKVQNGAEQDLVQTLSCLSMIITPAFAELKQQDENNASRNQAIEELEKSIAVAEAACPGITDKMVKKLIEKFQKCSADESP
Chain of Serine/threonine-protein kinase PAK 5 (Homo sapiens) (Q9P286 whole entry, looked up): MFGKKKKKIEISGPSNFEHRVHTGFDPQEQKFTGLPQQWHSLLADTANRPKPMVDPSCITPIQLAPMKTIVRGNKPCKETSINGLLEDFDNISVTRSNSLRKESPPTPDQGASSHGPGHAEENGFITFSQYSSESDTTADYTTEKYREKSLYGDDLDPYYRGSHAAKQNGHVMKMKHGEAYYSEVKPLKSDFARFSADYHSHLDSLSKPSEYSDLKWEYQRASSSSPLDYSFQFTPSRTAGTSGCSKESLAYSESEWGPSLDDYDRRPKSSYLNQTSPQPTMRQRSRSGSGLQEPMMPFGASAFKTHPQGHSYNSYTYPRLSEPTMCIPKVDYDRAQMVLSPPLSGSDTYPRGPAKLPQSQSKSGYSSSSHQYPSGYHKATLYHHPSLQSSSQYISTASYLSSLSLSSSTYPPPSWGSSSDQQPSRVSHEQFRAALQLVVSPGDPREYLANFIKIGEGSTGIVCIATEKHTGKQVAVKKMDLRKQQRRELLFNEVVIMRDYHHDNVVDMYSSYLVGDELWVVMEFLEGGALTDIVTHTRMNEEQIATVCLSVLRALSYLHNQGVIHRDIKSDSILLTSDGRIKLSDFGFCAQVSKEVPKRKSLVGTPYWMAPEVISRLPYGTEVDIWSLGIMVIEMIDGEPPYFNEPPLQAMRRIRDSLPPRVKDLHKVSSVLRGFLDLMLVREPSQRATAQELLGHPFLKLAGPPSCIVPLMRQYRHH
Chain of Calcium/calmodulin-dependent protein kinase type 1G (Homo sapiens) (Q96NX5 whole entry): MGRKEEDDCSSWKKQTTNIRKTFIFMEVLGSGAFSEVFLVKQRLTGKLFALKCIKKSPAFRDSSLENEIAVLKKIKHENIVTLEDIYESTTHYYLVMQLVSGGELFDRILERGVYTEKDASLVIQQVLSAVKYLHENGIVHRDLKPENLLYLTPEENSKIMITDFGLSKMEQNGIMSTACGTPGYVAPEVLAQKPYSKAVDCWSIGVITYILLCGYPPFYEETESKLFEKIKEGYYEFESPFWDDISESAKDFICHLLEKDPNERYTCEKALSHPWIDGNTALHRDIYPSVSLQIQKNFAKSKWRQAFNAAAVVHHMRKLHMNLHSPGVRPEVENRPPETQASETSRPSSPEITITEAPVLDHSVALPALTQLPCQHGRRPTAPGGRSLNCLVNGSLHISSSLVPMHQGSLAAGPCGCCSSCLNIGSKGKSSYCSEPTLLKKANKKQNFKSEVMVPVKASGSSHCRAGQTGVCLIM
Chain of Calcium/calmodulin-dependent protein kinase type II subunit delta (Homo sapiens) (Q13557 whole entry): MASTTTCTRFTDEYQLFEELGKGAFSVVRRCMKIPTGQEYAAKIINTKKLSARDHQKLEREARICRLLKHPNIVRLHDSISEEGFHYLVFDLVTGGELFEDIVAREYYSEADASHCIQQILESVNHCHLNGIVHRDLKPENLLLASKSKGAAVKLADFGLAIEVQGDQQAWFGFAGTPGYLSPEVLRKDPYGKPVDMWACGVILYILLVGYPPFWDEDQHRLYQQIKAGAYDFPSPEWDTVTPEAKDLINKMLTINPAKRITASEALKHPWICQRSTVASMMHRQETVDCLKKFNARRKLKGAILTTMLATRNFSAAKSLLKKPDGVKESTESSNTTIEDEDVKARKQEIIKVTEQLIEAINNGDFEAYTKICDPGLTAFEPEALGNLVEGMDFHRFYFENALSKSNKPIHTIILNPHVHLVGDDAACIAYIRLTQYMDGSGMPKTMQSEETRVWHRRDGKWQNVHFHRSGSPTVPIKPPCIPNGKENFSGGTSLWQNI
Chain of Serine/threonine-protein kinase PLK1 (Homo sapiens) (P53350 whole entry): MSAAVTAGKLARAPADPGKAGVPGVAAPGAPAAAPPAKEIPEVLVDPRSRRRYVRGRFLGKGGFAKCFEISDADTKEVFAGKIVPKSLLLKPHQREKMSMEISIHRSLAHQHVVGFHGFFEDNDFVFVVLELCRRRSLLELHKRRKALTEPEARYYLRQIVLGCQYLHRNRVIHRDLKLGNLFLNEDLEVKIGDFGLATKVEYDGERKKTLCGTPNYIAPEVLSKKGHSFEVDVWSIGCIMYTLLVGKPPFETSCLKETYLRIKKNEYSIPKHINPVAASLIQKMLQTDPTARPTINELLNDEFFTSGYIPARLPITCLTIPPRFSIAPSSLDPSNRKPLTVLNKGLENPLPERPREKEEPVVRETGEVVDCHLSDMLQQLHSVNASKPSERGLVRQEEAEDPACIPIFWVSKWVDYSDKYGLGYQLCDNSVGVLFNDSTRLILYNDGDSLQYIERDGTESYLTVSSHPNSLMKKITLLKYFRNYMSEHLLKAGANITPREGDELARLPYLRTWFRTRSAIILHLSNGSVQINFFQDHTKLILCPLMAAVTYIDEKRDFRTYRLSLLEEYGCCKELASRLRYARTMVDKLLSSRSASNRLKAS

Broadly, the ΔTm is the shift of the melting midpoint relative to a reference. As for `O=[N+]([O-])c1ccc(-c2nc(-c3ccc(F)cc3)c(-c3ccncc3)[nH]2)cc1`, the ΔTm in assay [1] was -0.3 °C; in [2], 2.2 °C; in assay [3] it was 0.5 °C; in assay [4], 0.7 °C; in [5], 0.9 °C; in assay [6], -0.2 °C. For the same compound, the ΔTm in assay [7] was 6.9 °C; in assay [8], -1.4 °C; in [9], 5.9 °C; in assay [10] it was 4.6 °C; in assay [11] it was 0.6 °C; in assay [12] it was 1 °C. Besides, the shift in melting temperature (ΔTm) in assay [13] was 0.1 °C; in assay [14] it was 3.7 °C; in assay [15], 1.5 °C; in assay [16], -1.4 °C; in assay [17], -0.4 °C; in assay [18], -0.5 °C. In addition, the ΔTm in [19] turned out to be 0.5 °C; in assay [20] it was 0.5 °C; in assay [21] it was 0.9 °C.
In the case of `O=C(O)Cc1ccc(O)c([N+](=O)[O-])c1`, the ΔTm in assay [1] was -0.7 °C; in assay [2] it was 1.4 °C; in assay [3] it was -0.2 °C; in [4] it was -0.4 °C; in assay [5] it was 0.1 °C; in assay [6], 0.6 °C. The ΔTm in assay [7] is 0.6 °C; in assay [8] it was 1.1 °C; in [9], 0 °C; in assay [10], -0.2 °C; in [11], -0.5 °C; in [12], 0.1 °C. Moreover, the thermal shift (ΔTm) is 0.9 °C in assay [13]; -0.3 °C in assay [14]; 0.3 °C in assay [15]; 0.4 °C in assay [16]; -0.8 °C in [17]; 0.6 °C in [18]. For the same compound, the ΔTm in [19] was -0.1 °C; in assay [20] it was 0.4 °C; in [21], 0.5 °C.
In the case of `O=c1cc(-c2ccc(O)cc2)oc2cc(O)cc(O)c12`, the ΔTm was 1.1 °C in [1]; 0.5 °C in assay [2]; 0.5 °C in [3]; 3.1 °C in assay [4]; 0.4 °C in assay [5]; 0.9 °C in assay [6]. Besides, the ΔTm came to 5 °C in assay [7]; 2.1 °C in [8]; 4 °C in assay [9]; 5.3 °C in assay [10]; 7.3 °C in assay [11]; 0.4 °C in [12]. For the same compound, the ΔTm amounted to 0.7 °C in assay [13]; 4.6 °C in assay [14]; 0.6 °C in assay [15]; 2 °C in [16]; 2.7 °C in [17]; 0.5 °C in assay [18]. Also, the results for the ΔTm in assay [19], in [20] and in assay [21] were 3.8 °C, 4.8 °C and 0.2 °C, respectively.
Regarding `Cn1cc(C2=C(c3cn(CCCN)c4ccccc34)C(=O)NC2=O)c2ccccc21`, the shift in melting temperature (ΔTm) in [1] is 0.3 °C; in [2], 2.6 °C; in [3], -0.3 °C; in assay [4], 2.1 °C; in [5], 1.3 °C; in [6], 0.3 °C. The ΔTm in [7] was 11.9 °C; in assay [8] it was -0.2 °C; in assay [9], 6.7 °C; in [10] it was 0.8 °C; in [11] it was 4.6 °C; in assay [12], 1.4 °C. Besides, the ΔTm is -0.5 °C in assay [13]; -0.5 °C in assay [14]; 0.6 °C in assay [15]; 0.2 °C in assay [16]; 5.9 °C in assay [17]; 1.7 °C in [18]. Moreover, the ΔTm is 5.6 °C in assay [19], 4.3 °C in assay [20] and -0.4 °C in [21].
For the compound `O=c1ccc2ccc(O)c(O)c2o1` [DAPHNETIN], the ΔTm in [1] is -0.6 °C; in [2], 0.4 °C; in assay [3], 0.3 °C; in [4], -0.4 °C; in assay [5], -0.3 °C; in assay [6], 0 °C. In addition, the shift in melting temperature (ΔTm) was 0.2 °C in [7]; -0.2 °C in assay [8]; -0.5 °C in [9]; 0.3 °C in [10]; 0.4 °C in assay [11]; -0.1 °C in assay [12]. For the same compound, the ΔTm in assay [13] was -0.1 °C; in assay [14] it was 0.2 °C; in assay [15], -0.1 °C; in assay [16], -0.1 °C; in assay [17] it was -0.1 °C; in [18] it was 0.1 °C. For the same compound, the ΔTm in [19] is 0.7 °C; in [20], 0.1 °C; in assay [21], -0.3 °C.
Consider `N#C/C(=C\c1ccc(O)c(O)c1)C(=O)NCc1ccccc1`, for which the ΔTm in assay [1] was -0.2 °C; in assay [2] it was 0.4 °C; in assay [3], 0.8 °C; in [4], 0.1 °C; in [5], 0.4 °C; in assay [6], 0.1 °C. Further, the ΔTm in [7] was 2.6 °C; in [8] it was 0 °C; in [9], 0.7 °C; in [10], 0.8 °C; in assay [11], 4.4 °C; in assay [12] it was 0.3 °C. The thermal shift (ΔTm) in assay [13] is 0.3 °C; in assay [14] it was 1.3 °C; in [15], 0.2 °C; in assay [16], 0.7 °C; in [17], 0.4 °C; in assay [18], 0.2 °C. In addition, the ΔTm was 1.9 °C in [19], 0.4 °C in [20] and 1 °C in assay [21].
